ChEMBL document CHEMBL1140189, “Lignans from the roots of Saururus chinensis” (J Nat Prod, 2008)

Legend:
Type in all cases: functional, cell-based
[1] = tested on: HT-29; assay: Cytotoxicity against human HT29 cells by MTT assay
[2] = tested on: HepG2; assay: Cytotoxicity against human HEPG2 cells by MTT assay
[3] = tested on: MCF7; assay: Cytotoxicity against human MCF7 cells by MTT assay

Question: For `COc1cc([C@H]2O[C@H](c3ccc4c(c3)OCO4)[C@H](C)[C@H]2C)ccc1O[C@H](C)[C@@H](O)c1ccc2c(c1)OCO2` [SAUCERNEOL F], which IC50 [1] is on record?
Answer: 10 µM

Question: And the IC50 [2]?
Answer: 11 µM

Question: And the IC50 [3]?
Answer: > 100 µM

Question: For `CC(Cc1cc2c(cc1O)OCO2)C(C)C(=O)c1ccc2c(c1)OCO2` (stereo not drawn) [SAUCERNEOL G], which IC50 [1] is on record?
Answer: 55 µM

Question: And the IC50 [2]?
Answer: 62 µM

Question: What about the IC50 [3] of the same molecule?
Answer: 64 µM

Question: `COc1ccc([C@H](O)[C@@H](C)Oc2ccc([C@H]3O[C@H](c4ccc5c(c4)OCO5)[C@H](C)[C@H]3C)cc2OC)cc1OC` [SAUCERNEOL D] was tested. Which IC50 [1] did it give?
Answer: 13 µM

Question: What about the IC50 [2] of the same molecule?
Answer: 16 µM

Question: What about the IC50 [3] of the same molecule?
Answer: > 100 µM

Question: What does the source list for `CC[C@@]1(O)C(=O)OCc2c1cc1n(c2=O)Cc2cc3ccccc3nc2-1` [CAMPTOTHECIN]?
Answer: IC50 [1]: 2 µM; IC50 [2]: 0.3 µM; IC50 [3]: 10 µM

Question: For `CC(Cc1cc2c(cc1O)OCO2)[C@@H](C)[C@H](O)c1ccc2c(c1)OCO2` (single isomer, unassigned) [SAUCERNEOL H], which IC50 [1] is on record?
Answer: 53 µM

Question: What about the IC50 [2] of the same molecule?
Answer: 61 µM

Question: What about the IC50 [3] of the same molecule?
Answer: 72 µM

Question: For `C[C@@H]([C@H](C)[C@H](O)c1ccc2c(c1)OCO2)[C@H](O)c1ccc2c(c1)OCO2` [SAUCERNEOL I], which IC50 [1] is on record?
Answer: 21 µM

Question: What about the IC50 [2] of the same molecule?
Answer: > 100 µM

Question: What about the IC50 [3] of the same molecule?
Answer: > 100 µM
